Experimental data from patent publication US9592221B2, “Antibacterial agents: aryl myxopyronin derivatives” (priority 2012, dated 2017).
pIC50: −log10 of the molar value.

How the values were obtained:
[1] = test system: Burkholderia pseudomallei Human/Blood/OH/US/1994; assay: microbe, parasite or virus in culture; type: cell-based; settings: Burkholderia pseudomallei, read-out: MIC B. pseudomallei Human/Blood/OH
[2] = test system: Acinetobacter baumannii ATCC 19606; assay: MIC, spiral gradient endpoint assay, A. baumannii; type: cell-based; settings: ATCC19606; Acinetobacter baumannii ATCC 19606
[3] = test system: Mycobacterium tuberculosis H37Rv; assay: MIC, microplate Alamar Blue assay, M. tuberculosis; type: cell-based
[4] = test system: Staphylococcus aureus ATCC 12600; assay: MIC, spiral gradient endpoint assay, S. aureus ATCC 12600; type: cell-based; settings: ATCC12600; Staphylococcus aureus ATCC 12600
[5] = target: S. aureus RNA polymerase core enzyme, S. aureus σ^A (Staphylococcus aureus, UniProt P47768+Q2G0N5); assay: Fluorescence-detected RNA polymerase assay, S. aureus RNA polymerase; type: biochemical; settings: read-out: IC50 S. aureus RNAP
[6] = target: M. tuberculosis RNA polymerase core enzyme, M. tuberculosis σ^A (Mycobacterium tuberculosis, UniProt P9WGY7+P9WGY9); assay: Fluorescence-detected RNA polymerase assay, M. tuberculosis RNA polymerase; type: biochemical; settings: read-out: IC50 M. tuberculosis RNAP
M. tuberculosis RNA polymerase core enzyme, M. tuberculosis σ^A, sequence (P9WGI1 whole entry): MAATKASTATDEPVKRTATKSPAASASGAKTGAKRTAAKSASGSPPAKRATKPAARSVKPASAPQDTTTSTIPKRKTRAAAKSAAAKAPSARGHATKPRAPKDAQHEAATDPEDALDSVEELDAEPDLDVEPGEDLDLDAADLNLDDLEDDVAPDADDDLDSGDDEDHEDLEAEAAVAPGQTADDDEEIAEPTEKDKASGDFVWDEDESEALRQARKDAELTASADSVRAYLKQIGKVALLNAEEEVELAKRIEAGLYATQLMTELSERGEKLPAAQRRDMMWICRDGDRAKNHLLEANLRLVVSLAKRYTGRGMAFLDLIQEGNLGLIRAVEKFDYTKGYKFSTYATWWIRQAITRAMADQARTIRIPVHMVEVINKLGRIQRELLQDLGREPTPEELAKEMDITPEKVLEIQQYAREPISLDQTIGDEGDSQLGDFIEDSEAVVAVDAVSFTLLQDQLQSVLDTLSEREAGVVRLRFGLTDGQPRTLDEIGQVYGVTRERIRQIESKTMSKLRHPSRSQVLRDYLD
M. tuberculosis RNA polymerase core enzyme, M. tuberculosis σ^A, sequence (P9WGY5 whole entry, further chain): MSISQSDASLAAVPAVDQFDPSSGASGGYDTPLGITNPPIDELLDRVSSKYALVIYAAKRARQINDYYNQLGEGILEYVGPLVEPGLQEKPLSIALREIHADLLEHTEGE
M. tuberculosis RNA polymerase core enzyme, M. tuberculosis σ^A, sequence (P9WGY7 whole entry): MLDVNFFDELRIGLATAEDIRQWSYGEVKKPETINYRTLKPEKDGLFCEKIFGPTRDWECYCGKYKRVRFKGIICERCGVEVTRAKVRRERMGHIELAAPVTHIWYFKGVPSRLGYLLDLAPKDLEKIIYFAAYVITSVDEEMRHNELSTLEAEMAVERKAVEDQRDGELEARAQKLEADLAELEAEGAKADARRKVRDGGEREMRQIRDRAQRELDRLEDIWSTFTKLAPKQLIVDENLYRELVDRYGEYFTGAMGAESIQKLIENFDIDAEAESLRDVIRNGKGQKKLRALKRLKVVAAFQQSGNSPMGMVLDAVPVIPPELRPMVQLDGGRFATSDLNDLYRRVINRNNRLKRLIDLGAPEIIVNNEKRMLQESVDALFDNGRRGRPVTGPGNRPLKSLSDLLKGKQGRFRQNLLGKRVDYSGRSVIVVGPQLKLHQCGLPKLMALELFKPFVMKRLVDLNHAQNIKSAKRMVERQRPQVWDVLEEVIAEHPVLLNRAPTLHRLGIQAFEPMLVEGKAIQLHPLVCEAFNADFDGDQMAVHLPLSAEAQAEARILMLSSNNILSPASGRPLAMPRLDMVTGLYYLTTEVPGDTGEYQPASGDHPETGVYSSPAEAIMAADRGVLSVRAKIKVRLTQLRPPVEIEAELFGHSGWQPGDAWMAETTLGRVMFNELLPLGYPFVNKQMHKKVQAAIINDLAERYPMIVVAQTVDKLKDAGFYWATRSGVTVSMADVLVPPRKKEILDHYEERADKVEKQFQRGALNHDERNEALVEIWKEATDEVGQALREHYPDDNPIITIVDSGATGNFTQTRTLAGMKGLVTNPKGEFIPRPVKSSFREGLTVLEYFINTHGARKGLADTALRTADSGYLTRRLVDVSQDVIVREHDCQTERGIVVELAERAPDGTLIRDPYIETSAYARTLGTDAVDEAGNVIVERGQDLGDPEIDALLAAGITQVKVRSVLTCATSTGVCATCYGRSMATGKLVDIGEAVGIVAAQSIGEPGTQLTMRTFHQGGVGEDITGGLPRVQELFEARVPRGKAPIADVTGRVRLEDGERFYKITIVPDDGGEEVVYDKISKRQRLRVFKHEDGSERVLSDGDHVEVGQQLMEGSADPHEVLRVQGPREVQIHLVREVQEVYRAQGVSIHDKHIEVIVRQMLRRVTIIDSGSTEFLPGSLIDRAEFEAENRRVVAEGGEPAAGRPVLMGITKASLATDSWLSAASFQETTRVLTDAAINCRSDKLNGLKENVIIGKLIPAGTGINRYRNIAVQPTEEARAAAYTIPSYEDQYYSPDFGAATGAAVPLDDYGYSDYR
M. tuberculosis RNA polymerase core enzyme, M. tuberculosis σ^A, sequence (P9WGY9 whole entry): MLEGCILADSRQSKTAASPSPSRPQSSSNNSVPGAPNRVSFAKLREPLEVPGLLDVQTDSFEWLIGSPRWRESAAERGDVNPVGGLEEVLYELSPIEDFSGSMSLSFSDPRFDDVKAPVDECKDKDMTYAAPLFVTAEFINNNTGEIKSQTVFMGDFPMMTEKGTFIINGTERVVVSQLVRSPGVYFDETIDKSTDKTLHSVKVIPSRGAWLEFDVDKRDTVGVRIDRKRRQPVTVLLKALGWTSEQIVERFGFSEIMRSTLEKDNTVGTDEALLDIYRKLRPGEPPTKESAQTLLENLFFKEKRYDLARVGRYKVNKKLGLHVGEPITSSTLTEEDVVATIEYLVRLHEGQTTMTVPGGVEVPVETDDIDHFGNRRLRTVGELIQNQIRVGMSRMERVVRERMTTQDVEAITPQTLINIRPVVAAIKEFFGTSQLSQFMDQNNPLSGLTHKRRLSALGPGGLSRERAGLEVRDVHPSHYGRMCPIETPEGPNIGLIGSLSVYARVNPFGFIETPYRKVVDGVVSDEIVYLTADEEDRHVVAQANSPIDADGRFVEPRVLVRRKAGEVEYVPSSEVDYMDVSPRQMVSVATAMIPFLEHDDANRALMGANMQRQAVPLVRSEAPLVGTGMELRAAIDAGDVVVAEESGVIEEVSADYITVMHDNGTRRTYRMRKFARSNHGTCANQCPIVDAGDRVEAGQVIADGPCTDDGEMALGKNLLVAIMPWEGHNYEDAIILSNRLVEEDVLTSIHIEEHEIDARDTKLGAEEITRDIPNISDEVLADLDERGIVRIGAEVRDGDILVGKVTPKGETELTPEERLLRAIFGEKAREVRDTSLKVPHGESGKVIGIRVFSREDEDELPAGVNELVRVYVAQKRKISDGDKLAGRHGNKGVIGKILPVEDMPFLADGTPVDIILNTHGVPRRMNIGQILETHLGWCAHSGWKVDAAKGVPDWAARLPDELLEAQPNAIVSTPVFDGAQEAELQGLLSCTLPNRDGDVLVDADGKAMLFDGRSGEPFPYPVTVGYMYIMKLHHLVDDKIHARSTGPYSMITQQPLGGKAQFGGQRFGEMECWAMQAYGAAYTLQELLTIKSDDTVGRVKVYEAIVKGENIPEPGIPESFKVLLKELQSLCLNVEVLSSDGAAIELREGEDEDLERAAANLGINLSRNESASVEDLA
M. tuberculosis RNA polymerase core enzyme, M. tuberculosis σ^A, sequence (P9WGZ1 whole entry, further chain): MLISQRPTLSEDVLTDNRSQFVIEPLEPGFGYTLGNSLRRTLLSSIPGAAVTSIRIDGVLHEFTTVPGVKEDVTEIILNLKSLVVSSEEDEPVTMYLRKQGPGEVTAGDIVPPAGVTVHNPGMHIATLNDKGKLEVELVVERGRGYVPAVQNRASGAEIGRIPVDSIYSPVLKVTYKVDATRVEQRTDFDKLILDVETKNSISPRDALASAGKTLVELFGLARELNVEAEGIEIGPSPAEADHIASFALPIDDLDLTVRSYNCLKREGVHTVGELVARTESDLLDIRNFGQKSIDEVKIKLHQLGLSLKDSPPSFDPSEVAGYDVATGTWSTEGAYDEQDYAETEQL

Burkholderia mallei CHN7 = assay: microbe, parasite or virus in culture; type: cell-based; settings: Burkholderia mallei, CHN7, read-out: MIC B. mallei CHN7
[7] = test system: Bacillus anthracis Vollum 1b; assay: microbe, parasite or virus in culture; type: cell-based; settings: Bacillus anthracis, VOLLUM1B, read-out: MIC B. anthracis Vollum-1b
[8] = target: E. coli RNA polymerase σ^70 holoenzyme (Escherichia coli, UniProt P0A8T7+P0A8V2); assay: Fluorescence-detected RNA polymerase assay, E. coli RNA polymerase; type: biochemical; settings: read-out: IC50 E. coli RNAP
[9] = test system: Escherichia coli D21f2tolC; assay: MIC, spiral gradient endpoint assay, E. coli D21f2tolC; type: cell-based; settings: Escherichia coli, D21F2TOLC, read-out: MIC E. coli D21f2toIC
Yersinia pestis C092 = assay: microbe, parasite or virus in culture; type: cell-based; settings: Yersinia pestis, C092, read-out: MIC Y. pestis C092
Brucella melitensis 16M = assay: microbe, parasite or virus in culture; type: cell-based; settings: Brucella melitensis, 16M, read-out: MIC B. melitensis 16M
[10] = test system: Francisella tularensis SCHU4; assay: microbe, parasite or virus in culture; type: cell-based; settings: Francisella tularensis, SCHU4, read-out: MIC F. tularensis SCHU4

Row | Compound | MIC [1] [µg/mL] | MIC [2] [µg/mL] | MIC [3] [µg/mL] | MIC [4] [µg/mL] | pIC50 [5] | pIC50 [6] | MIC (Burkholderia mallei CHN7) [µg/mL] | MIC [7] [µg/mL] | pIC50 [8] | MIC [9] [µg/mL] | MIC (Yersinia pestis C092) [µg/mL] | MIC (Brucella melitensis 16M) [µg/mL] | MIC [10] [µg/mL]
1 | CCCCCCc1ccc(C=C(C)C(=O)c2c(O)cc(C(C)CC/C=C/NC(=O)OC)oc2=O)o1 (mixture of isomers) [APY17, methyl (E)-5-(3-((E/Z)-3-(5-hexylfuran-2-yl)-2-methylacryloyl)-4-hydroxy-2-oxo-2H-pyran-6-yl)hex-1-enylcarbamate] | 30 | 10 | 10 | 8 | 7.00 | 6.05 | 3 | 2 | 7.70 | 0.1 | 10 | 2 | 0.8
2 | CCCCCCc1csc(C=C(C)C(=O)c2c(O)cc(C(C)CC/C=C/NC(=O)OC)oc2=O)c1 (mixture of isomers) [APY18, methyl (E)-5-(3-((E/Z)-3-(4-hexylthiophen-2-yl)-2-methylacryloyl)-4-hydroxy-2-oxo-2H-pyran-6-yl)hex-1-enylcarbamate] | 6 | 4 | 10 | 4 | 7.15 | 6.22 | 2 | 2 | 8.15 | 0.07 | 6 | 0.8 | 3
3 | CCCCc1ccc(C=C(CC)C(=O)c2c(O)cc(C(C)CC/C=C/NC(=O)OC)oc2=O)s1 (mixture of isomers) [APY21, methyl (E)-5-(3-((E/Z)-2-((5-butylthiophen-2-yl)methylene)butanoyl)-4-hydroxy-2-oxo-2H-pyran-6-yl)hex-1-enylcarbamate] | 10 | 20 | 10 | 2 | 6.30 | 6.52 | 6 | 3 | 7.40 | 0.3 | > 50 | 2 | 3
4 | CCCCCCc1ccc(C=C(C)C(=O)c2c(O)cc(C(C)CC/C=C/NC(=O)OC)oc2=O)s1 (mixture of isomers) [APY15, methyl (E)-5-(3-((E/Z)-3-(5-hexylthiophen-2-yl)-2-methylacryloyl)-4-hydroxy-2-oxo-2H-pyran-6-yl)hex-1-enylcarbamate] | 3 | 6 | > 50 | 0.9 | 7.70 | 6.70 | 0.8 | 0.4 | 8.30 | 0.08 | 3 | 0.4 | 0.4
5 | CCCCCCc1cccc(C=C(C)C(=O)c2c(O)cc(C(C)CC/C=C/NC(=O)OC)oc2=O)c1 (mixture of isomers) [APY34, methyl (E)-5-(3-((E/Z)-3-(3-hexylphenyl)-2-methylacryloyl)-4-hydroxy-2-oxo-2H-pyran-6-yl)hex-1-enylcarbamate] | 30 | 10 | 30 | > 40 | 7.30 | 5.52 | 3 | 3 | 8.00 | 0.3 | > 50 | 3 | 6
6 | COC(=O)N/C=C/CCC(C)c1cc(O)c(C(=O)C(C)=Cc2ccc(CCC(C)C)s2)c(=O)o1 (mixture of isomers) [APY31, methyl (E)-5-(4-hydroxy-3-((E/Z)-3-(5-isopentylthiophen-2-yl)-2-methylacryloyl)-2-oxo-2H-pyran-6-yl)hex-1-enylcarbamate] | 6 | 6 | 3 | 0.4 | 7.30 | 7.70 | 2 | 0.4 | 8.00 | < 0.3 | 10 | 0.8 | 6
7 | C=CCCc1ccc(C=C(C)C(=O)c2c(O)cc(C(C)CC/C=C/NC(=O)OC)oc2=O)s1 (mixture of isomers) [APY28, methyl (E)-5-(3-((E/Z)-3-(5-(but-3-enyl)thiophen-2-yl)-2-methylacryloyl)-4-hydroxy-2-oxo-2H-pyran-6-yl)hex-1-enylcarbamate] | 30 | 30 | 6 | 2 | 7.22 | 6.70 | 10 | 6 | 7.40 | 0.3 | 30 | 0.4 | 30
8 | COC(=O)N/C=C/CCC(C)c1cc(O)c(C(=O)C(C)=Cc2ccc(CCCC3CCCCC3)s2)c(=O)o1 (mixture of isomers) [APY32, methyl (E)-5-(3-((E/Z)-3-(5-(3-cyclohexylpropyl)thiophen-2-yl)-2-methylacryloyl)-4-hydroxy-2-oxo-2H-pyran-6-yl)hex-1-enylcarbamate] | 6 | > 40 | 6 | > 40 | 8.22 | 5.70 | 2 | 2 | 8.22 | 0.4 | > 50 | 2 | 0.8
9 | CCCCc1ccc(C=C(C)C(=O)c2c(O)cc(C(C)CC/C=C/NC(=O)OC)oc2=O)s1 (mixture of isomers) [APY16, methyl (E)-5-(3-((E/Z)-3-(5-butylthiophen-2-yl)-2-methylacryloyl)-4-hydroxy-2-oxo-2H-pyran-6-yl)hex-1-enylcarbamate] | 6 | 20 | 30 | 0.6 | 7.00 | 6.52 | 2 | 2 | 7.52 | 0.1 | 10 | 0.8 | 0.8
10 | CCCCCCc1coc(C=C(C)C(=O)c2c(O)cc(C(C)CC/C=C/NC(=O)OC)oc2=O)c1 (mixture of isomers) [APY19, methyl (E)-5-(3-((E/Z)-3-(4-hexylfuran-2-yl)-2-methylacryloyl)-4-hydroxy-2-oxo-2H-pyran-6-yl)hex-1-enylcarbamate] | 3 | 10 | 6 | 2 | 7.52 | 6.40 | 0.8 | 2 | 8.15 | 0.1 | 6 | 0.4 | 6
11 | CCCCc1cc(C)c(C=C(C)C(=O)c2c(O)cc(C(C)CC/C=C/NC(=O)OC)oc2=O)s1 (mixture of isomers) [APY75, methyl (E)-5-(3-((E/Z)-3-(5-butyl-3-methylthiophen-2-yl)-2-methylacryloyl)-4-hydroxy-2-oxo-2H-pyran-6-yl)hex-1-enylcarbamate] | 6 | 4 | 30 | 0.3 | 7.10 | 7.22 | 6 | 0.8 | 8.05 | 0.1 | – | 3 | 10
